Tests used:
Assay type in all cases: cell-based
P. aeruginosa = assay: Preservative efficacy test (PET), log reduction of P. aeruginosa; details: 24 hours, PET Screen International
Protocol: (§1) The antimicrobial activity and stability of the formulations shown in Table 1A below, which contain either 0.1 or 0.2 (w/v %) of Compound 1 were evaluated. Table 1A also contains an emulsion formulation (Formulation C) consisting of Cyclosporin and Compound 1. Table 1B constitutes overall standard preservative efficacy test (PET Screen International) results along with the results of a visual assessment of physical stability of the emulsions. […] Histograms for Formulation B, showing the initial particle size measurements as well as 60 weeks, can be seen in FIGS. 1A & 1B. Similarly, histograms for Formulation C, containing 0.05% Cyclosporin, showing the initial particle size measurements as well as at 62 weeks, can be seen in FIGS. 2A & 2B. […] The microbiological evaluation was conducted by determining the extent to which the emulsions reduced an initial population of about 10^6 cfu/mL microorganisms over time. The abbreviation “cfu” means colony forming unit. […] Overall EPA requirement of preservation in all tested formulations was achieved. The microbiology results are provided in greater detail in Table 1C, where the results of the evaluation of five microorganisms are provided.

S. aureus = assay: Preservative efficacy test (PET), log reduction of S. aureus; details: 24 hours, PET Screen International
Protocol: as §1

C. albicans = assay: Preservative efficacy test (PET), log reduction of C. albicans; details: 7 days, PET Screen International
Protocol: as §1

E. coli = assay: Preservative efficacy test (PET), log reduction of E. coli; details: 24 hours, PET Screen International
Protocol: as §1

Work on “sodium coco-diimonium chloride phosphate [Compound 1]” yielded a log reductions (P. aeruginosa; 0.1% Compound 1 emulsion) of 5 log, a log reductions (P. aeruginosa; 0.2% Compound 1 emulsion) of 5 log and a log reductions (S. aureus; 0.1% Compound 1 emulsion) of 5 log. For the same substance, the log reductions (S. aureus; 0.2% Compound 1 emulsion) was 5 log, the log reductions (C. albicans; 0.1% Compound 1 emulsion) was “approximately 5 log” and the log reductions (C. albicans; 0.2% Compound 1 emulsion) was “approximately 5 log”. It also gave a log reductions (E. coli; 0.1% Compound 1 emulsion) of 5 log and a log reductions (E. coli; 0.2% Compound 1 emulsion) of 5 log.

From patent US20090298956A1, “SELF-PRESERVED EMULSIONS” (priority 2008, published 2009)
